Test results reported in US8883743B2, “Methods for treating obesity employing an SGLT2 inhibitor” (AstraZeneca AB, priority 2007, dated 2014).

How the values were obtained:
[1] = Chronic weight loss study in diet-induced obese (DIO) rats; assay type: in vivo, rat
Procedure: DIO rats were sorted into treatment groups based on body weight, total kilocalories consumed, and body composition (via echo MRI). […] To assess the importance of compensatory over-eating in drug-treated animals, a subgroup of rats that received 5 mg/kg of dapagliflozin was restricted to the food intake of the placebo group. Body weight and the weight of both diets were determined daily. Respiratory quotient data were obtained on days 2 and 15 of the study, echo MRI was obtained on day 22, and blood was collected for a fasting clinical chemistry tests on day 27.
Percent weight changes were calculated as […].
The weight loss study with Compound IIIA (0.1, 0.3, 1, and 3 mg/kg) was performed using the same methods as the Dapagliflozin study.

[2] = Procedure: Patients with type 2 diabetes were treated with placebo, 5 mg dapagliflozin propylene glycol, 25 mg dapagliflozin propylene glycol, or 100 mg dapagliflozin propylene glycol.
[3] = 12-week once-daily oral treatment of treatment naive type II diabetes mellitus patients (glucosuria, body weight, BMI); assay type: in vivo, human; conditions: type II diabetic patients, each dose group, 12 weeks
Procedure: Treatment naive type II diabetes mellitus patients, n=389, with inadequate blood glycemic control and low mean glucosuria at baseline were given once-daily oral treatments with dapagliflozin (2.5, 5, 10, 20, or 50 mgs), metformin XR® (750 mg titrated to 1500 mgs), or placebo over 12-weeks.

Structure (SMILES)	weight loss ([1]; DIO rats, 0.1, 0.3, 1 and 3 mg/kg daily over 25 days (FIG. 5))	glucosuric effects: loss of calories in the urine (glucose excretion/day) ([2]; healthy subjects, single doses 5, 20, 50 or 100 mg, indirect comparison versus GSK 869,682 (FIG. 1))	24-hour urine glucose excretion compared to placebo ([2]; subjects with type 2 diabetes, 5 mg, 25 mg and 100 mg, 14-day study (FIG. 2))	weight loss when compound-induced overeating was prevented (pair fed to vehicle group) ([1]; DIO rats, 5 mg/kg subgroup restricted to food intake of placebo group (FIG. 4))	weight loss versus vehicle ([1]; DIO rats, oral 0.5, 1 and 5 mpk daily over 25 days, p<0.05 (FIG. 4))	proportion of patients achieving a 5% weight reduction versus placebo [3]
CCc1ccc(Cc2cc([C@@H]3O[C@H](CO)[C@@H](O)[C@H](O)[C@H]3O)ccc2Cl)cc1 [Compound IIIA, (2S,3R,4R,5S,6R)-2-(4-chloro-3-(4-ethylbenzyl)phenyl)-6-(hydroxymethyl)tetrahydro-2H-pyran-3,4,5-triol]	significant weight loss in diet-induced obese rats in a dose proportional manner					
CCOc1ccc(Cc2cc([C@@H]3O[C@H](CO)[C@@H](O)[C@H](O)[C@H]3O)ccc2Cl)cc1 [Dapagliflozin-PGS, dapagliflozin propylene glycol hydrate]		significant loss of calories in the urine	significantly higher urine glucose excretion	weight loss was greater	significant weight loss	higher proportion
